This note sets out measurements from US9113629B2, “4-amino-6-(4-substituted-phenyl)-picolinates and 6-amino-2-(4-substituted-phenyl)-pyrimidine-4-carboxylates and their use as herbicides” (DOW AGROSCIENCES LLC, priority 2013, dated 2015).

Molecules are shown by their SMILES.

Common to all, as to assay: Post-emergent Test I herbicidal activity
Format in all cases: in vivo

The test system of assay [1] is HELAN: sunflower (Helianthus annuus). The settings on record: post-emergence, 336 h, read-out: Visual Growth Reduction (%) 14 Days After Application, HELAN; for pest or weed control at 3960 g/ha: 3.96 kg ai/ha; for pest or weed control at 4000 g/ha: 4 kg ai/ha; for pest or weed control at 4040 g/ha: 4.04 kg ai/ha. How it is done:
(§1) Post-emergent Test I Seeds test species were obtained from commercial suppliers and planted into a 13 cm diameter-round pot containing soil-less media mix (metro-mix 360®, Sun Gro Horticulture). Postemergence treatments were planted 8-12 days prior to application and cultured in a greenhouse equipped with supplemental light sources to provide a 16 h photoperiod at 24-29° C. All pots were surface irrigated.
(§2) A weighted amount, determined by the highest rate to be tested, of each compound was dissolved in 1.3 mL acetone-DMSO (97:3, v/v) and diluted with 4.1 mL water-isopropanol-crop oil concentrate (78:20:2, v/v/v) containing 0.02% Triton X-155 to obtain concentrated stock solutions. Additional application rates were obtained by serial dilution of the high rate solution into a solution containing appropriate volume of 97:3 v/v mixture of acetone and DMSO and appropriate volume of an aqueous mixture of water, isopropyl alcohol, crop oil concentrate (78:20:2, v/v/v) containing 0.02% Triton X-155.
(§3) Formulated compounds were applied using a DeVilbiss® compressed air sprayer at 2-4 psi. Following treatment, pots were returned to the greenhouse for the duration of the experiment. All pots were sub-irrigated as need to provide optimum growing conditions. All pots were fertilized one time per week by subirrigating with Peters Peat-Lite Special® fertilizer (20-10-20).
(§4) […] All evaluations were made visually on a scale of 0 to 100 where 0 represents no activity and 100 represents complete plant death. Visual assessments of plant injury were made based on growth reduction, discoloration, leaf deformity and necrosis.

The test system of assay [2] is SETFA: giant foxtail (Setaria faberi). The note with it: post-emergence, 336 h, read-out: Visual Growth Reduction (%) 14 Days After Application, SETFA; for pest or weed control at 3960 g/ha: 3.96 kg ai/ha; for pest or weed control at 4000 g/ha: 4 kg ai/ha; for pest or weed control at 4040 g/ha: 4.04 kg ai/ha. How it is done:
as §1, §2, §3, §4

The test system of assay [3] is AVEFA: wild oats (Avena fatua). The note with it: post-emergence, 336 h, read-out: Visual Growth Reduction (%) 14 Days After Application, AVEFA; for pest or weed control at 3960 g/ha: 3.96 kg ai/ha. As for the experimental part: as §1, §2, §3, §4
Assay [4] has as its system IPOHE: ivyleaf morningglory (Ipomoea hederecea). The note with it: post-emergence, 336 h, read-out: Visual Growth Reduction (%) 14 Days After Application, IPOHE; for pest or weed control at 3960 g/ha: 3.96 kg ai/ha; for pest or weed control at 4000 g/ha: 4 kg ai/ha; for pest or weed control at 4040 g/ha: 4.04 kg ai/ha. How it is done:
as §1, §2, §3, §4

For assay [5], the system named is AMARE: redroot pigwseed (Amaranthus retroflexus). The settings on record: post-emergence, read-out: Visual Growth Reduction (%), AMARE; for pest or weed control at 4000 g/ha: 4 kg ai/ha. As for the experimental part: as §1, §2, §3, §4
Assay [6] relates to ECHCG: barnyardgrass (Echinochloa crus-galli). The settings on record: post-emergence, 336 h, read-out: Visual Growth Reduction (%) 14 Days After Application, ECHCG; for pest or weed control at 3960 g/ha: 3.96 kg ai/ha; for pest or weed control at 4000 g/ha: 4 kg ai/ha; for pest or weed control at 4040 g/ha: 4.04 kg ai/ha. How it is done:
as §1, §2, §3, §4

As for `COC(=O)c1nc(-c2ccc(C#N)cc2F)cc(N)c1Cl` [Compound 16], the pest or weed control at 3840 g/ha lay in the range of 95 to 100% in assay [1] (3.84 kg ai/ha); 60 to 74% in assay [2] (3.84 kg ai/ha); 0 to 29% in assay [3] (3.84 kg ai/ha); 95 to 100% in assay [4] (3.84 kg ai/ha); 95 to 100% in assay [5] (3.84 kg ai/ha); 45 to 59% in assay [6] (3.84 kg ai/ha).
Take `N#Cc1ccc(-c2nc(C(=O)O)c(Cl)c(N)c2F)cc1` [Compound 39]: the pest or weed control at 2000 g/ha fell in the range of 95 to 100% in assay [1] (2 kg ai/ha); 75 to 84% in assay [3] (2 kg ai/ha); 60 to 74% in assay [4] (2 kg ai/ha); 95 to 100% in assay [5] (2 kg ai/ha); 85 to 94% in assay [6] (2 kg ai/ha).
In the case of `Nc1c(F)c(-c2ccc(I)cc2)nc(C(=O)O)c1Cl` [Compound 45, 4-amino-3-chloro-5-fluoro-6-(4-iodophenyl)picolinic acid], the pest or weed control at 3960 g/ha in assay [1] was in the range of 95 to 100%; in assay [2], 95 to 100%; in assay [3], 95 to 100%; in assay [4] it was 85 to 94%; in assay [5] (3.96 kg ai/ha) it was 95 to 100%; in assay [6], 95 to 100%.
On to `COC(=O)c1nc(-c2ccc(OC(F)F)cc2)c(F)c(N)c1Cl` [Compound 85], for which the pest or weed control at 3760 g/ha was in the range of 95 to 100% in assay [1] (3.76 kg ai/ha); 85 to 94% in assay [2] (3.76 kg ai/ha); 30 to 44% in assay [3] (3.76 kg ai/ha); 30 to 44% in assay [4] (3.76 kg ai/ha); 95 to 100% in assay [5] (3.76 kg ai/ha); 95 to 100% in assay [6] (3.76 kg ai/ha).
On to `COC(=O)c1nc(-c2ccc(Br)c(F)c2F)c(F)c(N)c1Cl` [Compound 109, methyl 4-amino-6-(4-bromo-2,3-difluorophenyl)-3-chloro-5-fluoropicolinate], for which the pest or weed control at 4000 g/ha lay within 95 to 100% in assay [1]; 95 to 100% in assay [2]; 75 to 84% in assay [3] (4 kg ai/ha); 85 to 94% in assay [4]; 95 to 100% in assay [6].
Consider `COC(=O)c1nc(-c2ccc(Br)c(F)c2F)cc(N)c1Cl` [Compound 114, methyl 4-amino-6-(4-bromo-2,3-difluorophenyl)-3-chloropicolinate], for which the pest or weed control at 3920 g/ha in assay [1] (3.92 kg ai/ha) fell in the range of 95 to 100%; in assay [2] (3.92 kg ai/ha) it was 75 to 84%; in assay [3] (3.92 kg ai/ha), 0 to 29%; in assay [4] (3.92 kg ai/ha), 85 to 94%; in assay [5] (3.92 kg ai/ha), 95 to 100%; in assay [6] (3.92 kg ai/ha), 95 to 100%.
On to `COC(=O)c1nc(-c2ccc(I)cc2)c(F)c(N)c1Cl` [Compound 118, Methyl 4-amino-6-(4-iodophenyl)-3-chloro-5-fluoropicolinate], for which the pest or weed control at 2320 g/ha in assay [1] (2.32 kg ai/ha), in assay [2] (2.32 kg ai/ha), in assay [3] (2.32 kg ai/ha), in assay [4] (2.32 kg ai/ha), in assay [5] (2.32 kg ai/ha) and in assay [6] (2.32 kg ai/ha) was 95 to 100% each time.
With `Nc1c(F)c(-c2ccc(OC(F)F)cc2)nc(C(=O)O)c1Cl` [Compound 143], the pest or weed control at 4000 g/ha in assay [1] is 95 to 100%; in assay [2], 95 to 100%; in assay [4], 45 to 59%; in assay [5], 95 to 100%; in assay [6], 95 to 100%.
`COC(=O)c1nc(-c2cccc(F)c2F)c(F)c(N)c1Cl` [Compound 199]: the pest or weed control at 4000 g/ha in assay [1] is 95 to 100%; in assay [2] it was 85 to 94%; in assay [4] it was 75 to 84%; in assay [5], 95 to 100%; in assay [6], 60 to 74%.
For the compound `COC(=O)c1nc(-c2ccccc2F)c(F)c(N)c1Cl` [Compound 206], the pest or weed control at 4040 g/ha in assay [1] fell in the range of 95 to 100%; in assay [2], 0 to 29%; in assay [4] it was 75 to 84%; in assay [5] (4.04 kg ai/ha), 95 to 100%; in assay [6], 0 to 29%.
Regarding `C=Cc1c(C(=O)O)nc(-c2ccc(Cl)c(F)c2)c(F)c1N` [Compound 214], the pest or weed control at 4040 g/ha in assay [1] lay in the range of 95 to 100%; in assay [2], 85 to 94%; in assay [3] (4.04 kg ai/ha), 60 to 74%; in assay [4] it was 95 to 100%; in assay [6] it was 95 to 100%.
For `C=Cc1c(C(=O)OC)nc(-c2ccc(Cl)c(F)c2)c(F)c1N` [Compound 215, methyl 4-amino-6-(4-chloro-3-fluorophenyl)-5-fluoro-3-vinylpicolinate], the pest or weed control at 3960 g/ha in assay [1] fell in the range of 95 to 100%; in assay [2], 0 to 29%; in assay [3] it was 30 to 44%; in assay [4], 95 to 100%; in assay [6], 85 to 94%.
